{
  "source": "patent US10167299B2",
  "about": "“1-(3-aminopropyl) substituted cyclic amine compounds, preparation method therefor, and pharmaceutical compositions and uses thereof” (SHANGHAI INSTITUTE OF MATERIA MEDICA, CHINESE ACADEMY OF …, priority 2013, dated 2019)",
  "biological_target": "CCR5 (Homo sapiens (Human), UniProt P51681)",
  "sequence (P51681 whole entry)": "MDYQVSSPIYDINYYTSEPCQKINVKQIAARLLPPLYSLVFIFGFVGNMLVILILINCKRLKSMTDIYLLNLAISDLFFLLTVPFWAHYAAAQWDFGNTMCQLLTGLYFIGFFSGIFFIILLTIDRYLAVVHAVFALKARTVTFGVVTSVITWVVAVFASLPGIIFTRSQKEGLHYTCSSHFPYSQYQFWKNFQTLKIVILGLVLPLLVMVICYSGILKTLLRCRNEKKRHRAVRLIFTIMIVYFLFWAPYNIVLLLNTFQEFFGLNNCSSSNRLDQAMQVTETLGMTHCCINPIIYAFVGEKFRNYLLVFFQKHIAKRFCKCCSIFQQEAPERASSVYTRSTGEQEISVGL",
  "assay": "Calcium flux inhibition experiment",
  "assay_type": "cell-based",
  "conditions": "for calcium influx inhibition effect in words, versus positive control compounds: conclusion from Table 1",
  "from_the_text": "Experiment apparatus: FlexStation II\nExperiment materials: HEK293/CCR5-Gα16 cell line, Fluo-4calcium dye (fluorescent-4 calcium ion dye) and FlexStation instrument.\nExperiment theory: Activation of the receptor can cause the activation of Gα16 protein, thereby activating phospholipase C (PLC) to generate IP3 and DAG by establishing CCR5 and Ga16 co-transfected cell line. IP3 can bind to IP3 receptors on the endoplasmic reticulum and mitochondria in a cell, which can cause the release of intracellular calcium. Thus, determination of changes in intracellular calcium can be used as a method to detect CCR5 activation state. Fluo-4/AM is a fluorescent probe indicator for calcium used to measure calcium ion. As a non-polar lipid-soluble compound, after it enters into cells, AM group is dissociated to release Fluo-4 under the effect of cell lipolysis enzyme. Fluo-4 is a polar molecule and not easy to go through the lipid bilayer membrane, therefore it can stay within the cells for a long time. Ultimately, the level of activated Ga protein can be reflected by measuring the excited fluorescence intensity. If the screened compound can activate CCR5, it can greatly increase the calcium flux reaction; on the contrary, if the screened compound can antagonize CCR5, it can greatly reduce calcium flux reaction.\n1. HEK293 cells which can stably express CCR5 were inoculated in a 96-well plate and incubated overnight.\n2. The medium in each well into which cells were innoculated was removed and 40 μl/well of freshly prepared dye was added. The plate was placed in a 37° C. incubator and incubated for 40 minutes at constant temperature.\n3. The medicament to be determined was diluted with calcium buffer to eight concentration gradients, which is 1×10^−4 M, 1×10^−5 M, 1×10^−6 M, 1×10^−7 M, 1×10^−8 M, 1×10^−9 M, 1×10^−10 M, and 1×10^−11 M, respectively, and homogeneously mixed.\n4. The dye was removed. Freshly prepared calcium buffer was used to wash for one time, 50 μl of calcium buffer was added.\n5. FlexStation II was used for detection. 25 μl of calcium buffer containing the medicament to be determined was added automatically from the 15th second.",
  "key": {"[1]": {"conditions": "HEK293/CCR5-Gα16 cell line, calcium flux, read-out: CCR5 IC50"}},
  "note": "Like-named read-outs stand apart in the source and are kept apart here.",
  "data": [
    {"molecule": "CC(=O)N1CCc2c(nc(C)n2C2CC3CCC(C2)N3CC[C@H](NC(=O)C2CCC(F)(F)CC2)c2ccsc2)C1", "note": "(stereo partly drawn) [Compound 42, 4,4-difluoro-N-{(1S)-1-(thiophen-3-yl)-3-[(3-endo)-3-(5-acetyl-2-methyl-4,5,6,7-tetrahydro-1H-imidazo[4,5-c]pyridin-1-yl)-8-azabicyclo[3.2.1]octane-8-yl]propyl}cyclohexane-1-carboxamide]", "values": [
      {"measurement": "IC50", "setting": "[1]", "result": 15.9, "unit": "nM"}
    ]},
    {"molecule": "Cc1nc2c(n1C1CC3CCC(C1)N3CC[C@H](NC(=O)C1CCC(F)(F)CC1)c1ccsc1)CCN(C(=O)C(C)C)C2", "note": "(stereo partly drawn) [Compound 43, 4,4-difluoro-N-{(1S)-1-(thiophen-3-yl)-3-[(3-endo)-3-(5-isobutyryl-2-methyl-4,5,6,7-tetrahydro-1H-imidazo[4,5-c]pyridin-1-yl)-8-azabicyclo[3.2.1]octane-8-yl]propyl}cyclohexane-1-carboxamide]", "values": [
      {"measurement": "IC50", "setting": "[1]", "result": 8.34, "unit": "nM"}
    ]},
    {"molecule": "CCc1ccc([C@H](CCN2C3CCC2CC(n2c(C)nnc2C(C)C)C3)NC(=O)C2CCCCC2)s1", "note": "(stereo partly drawn) [Compound 65, N-[(1S)-3-[exo-3-(3-isopropyl-5-methyl-4H-1,2,4-triazol-4-yl)-8-azabicyclo[3.2.1]octane-8-yl]-1-(5-ethylthiophen-2-yl)propyl]cyclohexane-1-carboxamide]", "values": [
      {"measurement": "IC50", "setting": "[1]", "result": 1.62, "unit": "nM"},
      {"measurement": "calcium influx inhibition effect in words, versus positive control compounds", "result": "better than the positive control compounds"}
    ]},
    {"molecule": "CCc1ccc([C@H](CCN2C3CCC2CC(n2c(C)nnc2C(C)C)C3)NC(=O)C2CCCC2)s1", "note": "(stereo partly drawn) [Compound 66]", "values": [
      {"measurement": "IC50", "setting": "[1]", "result": 2.02, "unit": "nM"},
      {"measurement": "calcium influx inhibition effect in words, versus positive control compounds", "result": "better than the positive control compounds"}
    ]},
    {"molecule": "COC(=O)c1ccc([C@H](CCN2C3CCC2CC(n2c(C)nnc2C(C)C)C3)NC(=O)C2CCC(F)(F)CC2)s1", "note": "(stereo partly drawn) [Compound 73, 4,4-difluoro-N-[(1S)-3-[exo-3-(3-isopropyl-5-methyl-4H-1,2,4-triazol-4-yl)-8-azabicyclo[3.2.1]octane-8-yl]-1-(5-methoxycarbonylthiophen-2-yl)propyl]cyclohexane-1-carboxamide]", "values": [
      {"measurement": "IC50", "result": 8.23, "unit": "nM"}
    ]},
    {"molecule": "COC(=O)c1ccc([C@H](CCN2C3CCC2CC(n2c(C)nnc2C(C)C)C3)NC(=O)C2CCC(F)(F)CC2)s1", "note": "(stereo partly drawn) [Compound 88, 4,4-difluoro-N-[(1S)-3-[exo-3-(3-isopropyl-5-methyl-4H-1,2,4-triazol-4-yl)-8-azabicyclo[3.2.1]octane-8-yl]-1-(5-methoxycarbonylthiophen-2-yl)propyl]cyclohexane-1-carboxamide]", "values": [
      {"measurement": "IC50", "setting": "[1]", "result": 9.26, "unit": "nM"}
    ]},
    {"molecule": "Cc1nnc(C(C)C)n1C1CC2CCC(C1)N2CC[C@H](NC(=O)C1CCCCC1)c1ccc(Cl)s1", "note": "(stereo partly drawn) [Compound 113, N-[(1S)-3-[exo-3-(3-isopropyl-5-methyl-4H-1,2,4-triazol-4-yl)-8-azabicyclo[3.2.1]octane-8-yl]-1-(5-chlorothiophen-2-yl)propyl]cyclohexane-1-carboxamide]", "values": [
      {"measurement": "IC50", "setting": "[1]", "result": 8.14, "unit": "nM"}
    ]},
    {"molecule": "Cc1nnc(C(C)C)n1C1CC2CCC(C1)N2CC[C@H](NC(=O)C1CCCC1)c1ccc(Cl)s1", "note": "(stereo partly drawn) [Compound 114, N-[(1S)-3-[exo-3-(3-isopropyl-5-methyl-4H-1,2,4-triazol-4-yl)-8-azabicyclo[3.2.1]octane-8-yl]-1-(5-chlorothiophen-2-yl)propyl]cyclopentane-1-carboxamide]", "values": [
      {"measurement": "IC50", "setting": "[1]", "result": 9.27, "unit": "nM"}
    ]},
    {"molecule": "Cc1nnc(C(C)C)n1C1CC2CCC(C1)N2CC[C@H](NC(=O)C1CCCCC1)c1nccs1", "note": "(stereo partly drawn) [Compound 116, N-[(1S)-3-[exo-3-(3-isopropyl-5-methyl-4H-1,2,4-triazol-4-yl)-8-azabicyclo[3.2.1]octane-8-yl]-1-(thiazol-2-yl)propyl]cyclohexane-1-carboxamide]", "values": [
      {"measurement": "IC50", "setting": "[1]", "result": 15.6, "unit": "nM"}
    ]},
    {"molecule": "Cc1nnc(C(C)C)n1C1CC2CCC(C1)N2CC[C@H](NC(=O)C1CCCC1)c1nccs1", "note": "(stereo partly drawn) [Compound 117, N-[(1S)-3-[exo-3-(3-isopropyl-5-methyl-4H-1,2,4-triazol-4-yl)-8-azabicyclo[3.2.1]octane-8-yl]-1-(thiazol-2-yl)propyl]cyclopentane-1-carboxamide]", "values": [
      {"measurement": "IC50", "setting": "[1]", "result": 16.1, "unit": "nM"}
    ]},
    {"molecule": "CCCC(=O)N1CCc2c(nc(C)n2C2CC3CCC(C2)N3CC[C@H](NC(C)=O)c2nccs2)C1", "note": "(stereo partly drawn) [Compound 123, N-{(1S)-3-[(3-endo)-3-(5-n-butyryl-2-methyl-4,5,6,7-tetrahydro-1H-imidazo[4,5-c]pyridin-1-yl)-8-azabicyclo[3.2.1]octane-8-yl]-1-(thiazol-2-yl)-propyl}acetamide]", "values": [
      {"measurement": "IC50", "setting": "[1]", "result": 12.1, "unit": "nM"},
      {"measurement": "calcium influx inhibition effect in words, versus positive control compounds", "result": "better than the positive control compounds"}
    ]},
    {"molecule": "CCC(=O)N[C@@H](CCN1C2CCC1CC(n1c(C)nc3c1CCN(C(C)=O)C3)C2)c1nccs1", "note": "(stereo partly drawn) [Compound 124, N-{(1S)-3-[(3-endo)-3-(5-acetyl-2-methyl-4,5,6,7-tetrahydro-1H-imidazo[4,5-c]pyridin-1-yl)-8-azabicyclo[3.2.1]octane-8-yl]-1-(thiazol-2-yl)-propyl}propanamide]", "values": [
      {"measurement": "IC50", "setting": "[1]", "result": 11.2, "unit": "nM"},
      {"measurement": "calcium influx inhibition effect in words, versus positive control compounds", "result": "better than the positive control compounds"}
    ]},
    {"molecule": "CC(=O)Nc1ccc([C@H](CCN2C3CCC2CC(n2c(C)nnc2C(C)C)C3)NC(=O)C2CCCCC2)s1", "note": "(stereo partly drawn) [Compound 138, N-[(1S)-3-[exo-3-(3-isopropyl-5-methyl-4H-1,2,4-triazol-4-yl)-8-azabicyclo[3.2.1]octane-8-yl]-1-(5-acetamidothiophen-2-yl)propyl]cyclohexane-1-carboxamide]", "values": [
      {"measurement": "IC50", "setting": "[1]", "result": 9.75, "unit": "nM"},
      {"measurement": "calcium influx inhibition effect in words, versus positive control compounds", "result": "comparable to the positive control compounds"}
    ]},
    {"molecule": "CC(=O)Nc1ccc([C@H](CCN2C3CCC2CC(n2c(C)nnc2C(C)C)C3)NC(=O)C2CCCC2)s1", "note": "(stereo partly drawn) [Compound 139, N-[(1S)-3-[exo-3-(3-isopropyl-5-methyl-4H-1,2,4-triazol-4-yl)-8-azabicyclo[3.2.1]octane-8-yl]-1-(5-acetamidothiophen-2-yl)propyl]cyclopentane-1-carboxamide]", "values": [
      {"measurement": "IC50", "setting": "[1]", "result": 12.3, "unit": "nM"}
    ]},
    {"molecule": "CNC(=O)c1ccc([C@H](CCN2C3CCC2CC(n2c(C)nnc2C(C)C)C3)NC(=O)C2CCCCC2)s1", "note": "(stereo partly drawn) [Compound 141, 5-[(1S)-1-(cyclohexaneformamido)-3-[exo-3-(3-isopropyl-5-methyl-4H-1,2,4-triazol-4-yl)-8-azabicyclo[3.2.1]octane-8-yl]-propyl]-N-methylthiophene-2carboxamide]", "values": [
      {"measurement": "IC50", "setting": "[1]", "result": 8.36, "unit": "nM"},
      {"measurement": "calcium influx inhibition effect in words, versus positive control compounds", "result": "comparable to the positive control compounds"}
    ]},
    {"molecule": "CNC(=O)c1ccc([C@H](CCN2C3CCC2CC(n2c(C)nnc2C(C)C)C3)NC(=O)C2CCCC2)s1", "note": "(stereo partly drawn) [Compound 142, 5-[(1S)-1-(cyclopentaneformamido)-3-[exo-3-(3-isopropyl-5-methyl-4H-1,2,4-triazol-4-yl)-8-azabicyclo[3.2.1]octane-8-yl]-propyl]-N-methylthiophene-2carboxamide]", "values": [
      {"measurement": "IC50", "setting": "[1]", "result": 9.55, "unit": "nM"},
      {"measurement": "calcium influx inhibition effect in words, versus positive control compounds", "result": "comparable to the positive control compounds"}
    ]},
    {"molecule": "CC(=O)N[C@@H](CCN1C2CCC1CC(n1c(C)nc3c1CCN(C(=O)C(C)C)C3)C2)c1ccc(C#N)s1", "note": "(stereo partly drawn) [Compound 143, N-{(1S)-3-[(3-endo)-3-(5-isobutyryl-2-methyl-4,5,6,7-tetrahydro-1H-imidazo[4,5-c]pyridin-1-yl)-8-azabicyclo[3.2.1]octane-8-yl]-1-(5-cyanothiophen-2-yl)-propyl}acetamide]", "values": [
      {"measurement": "IC50", "setting": "[1]", "result": 13.9, "unit": "nM"}
    ]},
    {"molecule": "CC(=O)N[C@@H](CCN1C2CCC1CC(n1c(C)nc3c1CCN(C(C)=O)C3)C2)c1ccc(C#N)s1", "note": "(stereo partly drawn) [Compound 144, N-{(1S)-3-[(3-endo)-3-(5-acetyl-2-methyl-4,5,6,7-tetrahydro-1H-imidazo[4,5-c]pyridin-1-yl)-8-azabicyclo[3.2.1]octane-8-yl]-1-(5-cyanothiophen-2-yl)-propyl}acetamide]", "values": [
      {"measurement": "IC50", "setting": "[1]", "result": 8.53, "unit": "nM"}
    ]},
    {"molecule": "CC(=O)N[C@@H](CCN1C2CCC1CC(n1c(C)nc3c1CCN(C(=O)C(C)C)C3)C2)c1cc(C)cs1", "note": "(stereo partly drawn) [Compound 145, N-{(1S)-3-[(3-endo)-3-(5-isobutyryl-2-methyl-4,5,6,7-tetrahydro-1H-imidazo[4,5-c]pyridin-1-yl)-8-azabicyclo[3.2.1]octane-8-yl]-1-(4-methylthiophen-2-yl)-propyl}acetamide]", "values": [
      {"measurement": "IC50", "setting": "[1]", "result": 13.3, "unit": "nM"}
    ]},
    {"molecule": "Cc1nnc(C(C)C)n1C1CC2CCC(C1)N2CC[C@H](NC(=O)C1CCN(S(C)(=O)=O)CC1)c1cccs1", "note": "(stereo partly drawn) [Compound 146, N-[(1S)-3-[exo-3-(3-isopropyl-5-methyl-4H-1,2,4-triazol-4-yl)-8-azabicyclo[3.2.1]octane-8-yl]-1-(thiophen-2-yl)propyl]-1-methylsulfonylpiperidine-4-carboxamide]", "values": [
      {"measurement": "IC50", "setting": "[1]", "result": 1.75, "unit": "nM"},
      {"measurement": "calcium influx inhibition effect in words, versus positive control compounds", "result": "better than the positive control compounds"}
    ]},
    {"molecule": "Cc1ccc([C@H](CCN2C3CCC2CC(n2c(C)nnc2C(C)C)C3)NC(=O)C2CCN(S(C)(=O)=O)CC2)s1", "note": "(stereo partly drawn) [Compound 147]", "values": [
      {"measurement": "IC50", "setting": "[1]", "result": 2.48, "unit": "nM"},
      {"measurement": "calcium influx inhibition effect in words, versus positive control compounds", "result": "better than the positive control compounds"}
    ]}
  ]
}
